According to patent US20260193294A1, “POLYPEPTIDE INHIBITOR, AND PREPARATION METHOD THEREFOR AND USE THEREOF” (SHANGHAI HANSOH BIOMEDICAL CO., LTD., priority 2022, published 2026):

Key:
[1] = Stability in plasma (human); type: in vitro ADME
Procedure: (§1) To study the stability of the compounds of the examples in the plasmas of mice, rats, dogs and humans.
(§2) Preparation of plasma: Animal or human whole blood was collected, then put into a test tube containing an anticoagulant, and centrifuged at 3500 rpm for 10 min, and the upper pale yellow plasma was collected; • working solution of 10 μM test compound: a stock solution was prepared with DMSO, and the working solution was prepared with 100 mM phosphate buffer; • working solution of 10 μM positive control: • procaine: 2.36 mg of procaine was weighed and diluted into a 10 mM stock solution with 1 mL of DMSO. 10 μL of the 10 mM stock solution was pipetted into 1 mL of 100 mM phosphate buffer, such that the final concentration was 100 μM; and • enalapril: 4.93 mg of enalapril was weighed and diluted into a 10 mM stock solution with 1 mL of DMSO; and 10 μL of the 10 mM stock solution was pipetted into 1 mL of 100 mM phosphate buffer, such that the final concentration was 100 μM.
(§3) In a 96-well plate, 285 μL of plasma and 15 μL of 10 μM compound (test compound, and positive control) were successively added and incubated at 37° C.
(§4) 40 μL was taken at 0, 15, 30, 60, 90, and 120 min (sampling points could be fine-tuned), respectively, and 160 μL of an acetonitrile stop solution containing an internal standard was added.
(§5) After centrifugation (3500 rpm, 10 min), 50 μL of the supernatant was taken, diluted by adding 50 μL of DDH2O, and then injected for LC-MS/MS.
(§6) • Instrument: Shimadzu LC-20 AD • Chromatographic column: Phenomenex Gemiu® C18 (50*4.6 mm, 5 μm particle size) • Mobile phase: A: acetonitrile, B: 0.1% formic acid solution • Elution gradient: […]: 5% A→95% A, 2.0-2.1 min: […] • Flow rate: 0.8 mL/min • Run time: 5.0 min • Injection volume: 5 μL
(§7) • Instrument: API4000 liquid chromatography mass spectrometer, AB, US • Ion source: electrospray ionization source (ESI) • Drying gas: N2, temperature 500° C. • Electrospray voltage: 5500V • Detection mode: positive ion detection • Scan mode: multi reaction monitoring (MRM) mode • Scan time: 0.1 s
(§8) All calculations were carried out using Microsoft Excel. The peak area ratio was determined by an extracted ion chromatogram.
(§9) The residual percentage of the compound at each time point was calculated by the following equation: Residual percentage at t hours (%)=peak area ratio at t hours/peak area ratio at 0 hour×100%, in which the peak area ratio at t hr was the peak area ratio of the […] at t min; and • the slope value k was determined by linear regression on the natural logarithm of the curve of the residual percentage of the parent drug versus the incubation time.
(§10) In vitro half-life (in vitro t1/2) was determined by the slope value: […]

in vitro = in vitro ADME; conditions: 37° C.; for half-life at 0.5 μM: in vitro half-life, read-out: t1/2 (converted); for remaining at 4 h, 0.5 µM: read-out: Residual ratio % at 4 h
Procedure: as §1, §2, §3, §4, §5, §6, §7, §8, §9, §10

[2] = tested on: IL23-induced rat otitis model; assay: In vivo pharmacodynamics in IL23-induced rat otitis model (ear thickening); parameters: species or system SD rats; conditions: 10 mg/kg, gavage, QD
Description: To evaluate the in vivo efficacy of the compounds in an IL23-induced rat otitis model.
SD rats, 6-8 weeks old, male, purchased from Jiangsu GemPharmatech Co., Ltd.
• a. […]

CC(=O)NCCCC[C@@H]1NC(=O)[C@H](Cc2c[nH]c3c(C)cccc23)NC(=O)[C@H]([C@@H](C)O)NC(=O)[C@H](CC(N)=O)NC(=O)[C@@H](NC(C)=O)C(C)(C)SSC(C)(C)[C@@H](C(=O)N[C@@H](Cc2ccc(OCCN)cc2)C(=O)N[C@@H](Cc2ccc3ccccc3c2)C(=O)NC2(C(=O)N[C@@H](CCC(=O)O)C(=O)N[C@@H](CC(N)=O)C(=O)N[C@@H](Cc3cccnc3)C(=O)N(C)CCNC(=O)CCOCCOCC[N+](C)(C)CCNC(=O)COCCOCCNC(=O)COCCOCCNC(=O)CC[C@H](NC(=O)CCCCCCCCCCCCCCC(=O)O)C(=O)O)CCC(F)(F)CC2)NC1=O [Example 1-16-1]
remaining at 4 h, 0.5 µM ([1]; Human plasma, 37° C., read-out: Residual ratio % at 4 h): 94.8% | half-life at 0.5 μM ([1]; human, plasma): 1.72 days | half-life at 0.5 μM (in vitro; Dog plasma): 3.15 days | remaining at 4 h, 0.5 µM (in vitro; Dog plasma): 90.5% | half-life at 0.5 μM (in vitro; Rat plasma): 25.1 days | remaining at 4 h, 0.5 µM (in vitro; Rat plasma): 104% | half-life at 0.5 μM (in vitro; mouse, Mice plasma): 83.6 days | remaining at 4 h, 0.5 µM (in vitro; mouse, Mice plasma): 104% | Inhibition rate on Day 4 (ear thickening) [2]: 70.77%
